No end group written: not given here.
Target: T1, VLA-4 (Homo sapiens, UniProt P05556+P13612)
T1 construct: the α4-integrin (VLA-4), which is expressed on myeloma cells; endogenous in cells; host or cells: CAG human myeloma cells (HPSE^low), whole-cell lysate
Experiment: GST pull down assay: capture of VLA-4 by GST-S1ED
Type: binding
Settings: HPSE^low cell lysates; peptide 30 M [sic]
Description: FIGS. 6A-G. Peptides derived from the active site in Sdc1 activate or inhibit adhesion and invasion. (FIG. 6A) Transwell migration assays towards FN (for 16 hrs) were performed for HPSE low or high cells in the presence of 0, 0.3, 3, and 30 μM of S1ED^210-240. Cells migrating to the bottom side of the filter were counted from five random images for each treatment. (FIG. 6B) The sequence of S1ED210-240 is shown (SEQ ID NO: 3), as well as […] truncation mutants of the peptide (SEQ ID NOs: 5, 2, 4 and 7). Amino acids shown in red appear necessary for the spreading and invasive activity. (FIG. 6C) Images of HPSE^low and HPSE^high cells plated on FN for 2 hr. (FIG. 6D) HPSE^low cells were treated with 0, 0.3, 3, 10 and 30 μM of S1ED^210-236, S1ED^210-233, or S1ED^214-240, plated on FN for 2 hr, fixed and stained with fluorescent phalloidin. Cells from five random images were quantified for cell attachment and cell spreading. (FIG. 6E) HPSE^high cells were treated with 0, 3, 10, and 30 μM of S1ED^210-236, S1ED^210-233, and S1ED^214-240, plated on FN for 2 hr, then fixed, imaged and quantified as in FIG. 6D. (FIG. 6F) Transwell migration assays towards FN (for 16 hr) were performed for HPSE^low or HPSE^high cells in the presence of 30 μM of S1ED^210-236, S1ED^210-233, S1ED^214-240 and Vandetanib. (FIG. 6G) HPSE^low cell lysates were incubated overnight with glutathione beads coated with GST or GST-S1ED in the absence or presence of 30 μM of S1ED^210-236, S1ED^210-233, and S1ED^214-240. Capture of VLA-4 or VEGFR2 was detected by immunoblotting. Sequences in FIG. 6B are 210-240 (SEQ ID NO: 3), 210-236 (SEQ ID NO: 2), 210-233 (SEQ ID NO: 4), 214-240 (SEQ ID NO: 5) and 214-236 (SEQ ID NO: 7).
CAG cells were washed with CMF-PBS and then lysed for 20 min on ice in lysis buffer. Cell debris was removed by centrifugation at 13000 rpm for 20 min at 4° C. Whole cell lysates were then incubated at 4° C. overnight with either 3 μM GST or 3 μM GST-S1ED in the absence or presence of 1 μM, 3 μM, and 10 μM S1ED^210-240 peptide. GST or GST-S1ED was captured by addition of glutathione Sepharose and the beads were washed with ice-cold lysis buffer and CMF-PBS, prior to addition of SDS-PAGE sample buffer and analyszed by electrophoresis and western blotting as described previously.

T1 sequence (P13612 34-1032): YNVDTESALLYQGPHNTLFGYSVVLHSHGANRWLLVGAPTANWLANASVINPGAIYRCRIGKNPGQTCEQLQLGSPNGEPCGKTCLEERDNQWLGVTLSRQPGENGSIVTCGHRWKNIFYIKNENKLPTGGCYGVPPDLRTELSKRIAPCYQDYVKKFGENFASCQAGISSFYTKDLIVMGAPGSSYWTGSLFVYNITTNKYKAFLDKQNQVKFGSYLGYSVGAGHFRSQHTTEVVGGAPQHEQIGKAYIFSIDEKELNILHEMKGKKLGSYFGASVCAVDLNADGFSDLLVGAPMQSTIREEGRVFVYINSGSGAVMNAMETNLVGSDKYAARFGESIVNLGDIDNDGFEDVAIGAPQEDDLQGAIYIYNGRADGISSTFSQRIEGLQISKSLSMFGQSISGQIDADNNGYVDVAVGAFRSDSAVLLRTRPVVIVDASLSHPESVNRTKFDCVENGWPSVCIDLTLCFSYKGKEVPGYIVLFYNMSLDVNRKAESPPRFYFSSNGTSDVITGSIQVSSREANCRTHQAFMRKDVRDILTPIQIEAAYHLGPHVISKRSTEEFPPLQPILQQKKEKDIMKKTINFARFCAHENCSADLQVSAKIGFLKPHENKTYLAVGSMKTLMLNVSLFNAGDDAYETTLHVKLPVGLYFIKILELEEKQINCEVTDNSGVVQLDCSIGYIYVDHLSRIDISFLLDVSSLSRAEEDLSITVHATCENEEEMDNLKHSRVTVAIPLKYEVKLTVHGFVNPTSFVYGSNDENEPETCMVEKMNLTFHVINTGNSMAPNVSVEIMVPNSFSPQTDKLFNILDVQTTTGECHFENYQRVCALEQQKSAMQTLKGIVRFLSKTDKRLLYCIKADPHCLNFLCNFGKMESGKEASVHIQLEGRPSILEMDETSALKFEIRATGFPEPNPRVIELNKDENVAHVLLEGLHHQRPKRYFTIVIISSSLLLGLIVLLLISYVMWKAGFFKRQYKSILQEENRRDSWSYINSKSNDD
T1 sequence (P05556 21-798): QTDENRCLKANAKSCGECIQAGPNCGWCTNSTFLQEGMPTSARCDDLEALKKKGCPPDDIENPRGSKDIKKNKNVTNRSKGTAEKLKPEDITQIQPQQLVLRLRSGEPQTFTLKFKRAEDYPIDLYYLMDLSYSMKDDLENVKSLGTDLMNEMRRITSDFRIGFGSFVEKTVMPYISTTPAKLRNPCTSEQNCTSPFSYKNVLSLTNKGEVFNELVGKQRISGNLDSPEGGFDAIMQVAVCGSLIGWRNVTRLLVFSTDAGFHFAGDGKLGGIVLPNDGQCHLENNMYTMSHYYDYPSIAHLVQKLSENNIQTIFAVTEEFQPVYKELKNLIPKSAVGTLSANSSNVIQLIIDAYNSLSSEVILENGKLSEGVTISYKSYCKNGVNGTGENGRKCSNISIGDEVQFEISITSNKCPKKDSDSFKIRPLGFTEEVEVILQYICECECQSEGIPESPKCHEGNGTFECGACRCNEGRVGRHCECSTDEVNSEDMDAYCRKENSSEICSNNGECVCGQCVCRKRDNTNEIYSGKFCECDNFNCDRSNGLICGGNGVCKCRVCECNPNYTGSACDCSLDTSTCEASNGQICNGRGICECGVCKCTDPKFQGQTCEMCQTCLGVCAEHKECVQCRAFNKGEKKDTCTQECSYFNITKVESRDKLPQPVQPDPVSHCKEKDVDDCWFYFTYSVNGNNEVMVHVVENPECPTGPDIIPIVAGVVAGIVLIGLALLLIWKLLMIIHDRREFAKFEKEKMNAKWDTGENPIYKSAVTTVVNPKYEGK

## DFTFETSGENTAVVAVEPDRRNQSPVD [S1ED^210-236]
  competition for capture of VLA-4 by GST-S1ED: effectively blocks capture of both receptors
